Data on one molecule can be found in patent publication US20240139165A1, “METHODS AND COMPOSITIONS FOR TREATMENT OF INFLAMMATORY BOWEL DISEASE” (SHENZHEN HIGHTIDE BIOPHARMACEUTICAL, LTD., priority 2017, published 2024).

A short description of the series: Single-dose pharmacokinetic study of berberine and fish oil in rats. It counts as in vivo, male Sprague-Dawley (SD) rats. As to conditions: SD rats, single oral, BBR 100 mg/kg. The text has this: In the single-dose pharmacokinetic study in rats, after 7-day acclimation, healthy male Sprague-Dawley (SD) rats with the body weight of 210-250 g were randomized into six groups as follows (3 rats per group). Fish oil used in this study containing 47.8% (w/w) EPA-ethyl ester and 39.0% (w/w) DHA-ethyl ester. [table] The rats in each group were orally treated with the suspensions of the corresponding testing articles indicated above in 0.5% gum tragacanth respectively. Blood samples of the test animals were collected pre-dose and at the time points of 15 min, 30 min, 1 h, 1.5 h, 2 h, 4 h, 8 h, and 24 h post-dose. The collected blood samples (approximately 400 μL) were placed into tubes containing heparin sodium and centrifuged at 8000 rpm for 6 minutes at 4° C. to separate plasma. The obtained plasma from each sample was stored at −80° C. until being analyzed. Plasma concentrations of BBR and EPA were determined, and PK parameters were calculated.

For `COc1ccc2cc3[n+](cc2c1OC)CCc1cc2c(cc1-3)OCO2` [BBR, 5,6-dihydro-9,10-dimethoxybenzo[g]-1,3-benzodioxolo[5,6-a]quinolizinium], the “Cmax of BBR” value amounted to 4.23 ± 5.46 ng/mL, the “Ratio of AUC0-t of BBR compared to BBR group” value came to 1.00 and the “Ratio of Cmax of BBR compared to BBR group” value was 1.00. Moreover, the AUC(0-t) (male, Sprague-Dawley, rat, plasma, read-out: AUC0-t of BBR) was 45.8 ± 60.1 ng·h/mL.
